The structures appear in SMILES notation. Values joined by “and” are separate entries in the source; they are usually repeats but may differ in a detail not shown here. Equal values may be shown once.

The subject of the experiment is S. typhi GFP reporter counter-screen, fluorescence, 4 h. The experiment in a line: S. typhi counter-screen signal inhibition – fluorescence, 4 h, counter-screen for PhoP regulon inhibitor project, dose response (AID 2384).
As for `O=C(Nc1nc(-c2ccccn2)cs1)c1ccc(Cl)s1`, the IC50 is 21.3 µM.

As to `Nc1cccc2c(=O)c3ccccc3[nH]c12`, the IC50 is 37.6 µM.

For the molecule `CCN(CC(=O)NC(C)(C)C)C(=O)COc1c(Cl)cc(Cl)c2ccc(C)nc12`, the IC50 is 19 µM.

Consider `COC(=O)N/N=C/c1c[n+]([O-])c2ccccc2[n+]1[O-]`, for which the IC50 is 92.1 µM.

With `COc1c(N2CCN(C(=S)Nc3ccc(F)cc3)C(C)C2)c(F)cc2c(=O)c(C(=O)O)cn(C3CC3)c12` (stereo unspecified), the IC50 was 18.3 µM.

For the molecule `Nc1nc2ccccc2n1CCOc1ccccc1Cl`, the IC50 is 40.7 µM.

As to `CCn1cc(C(=O)NCCO)c(=O)c2cc(F)c(N3CCN(C)CC3)cc21`, the IC50 was 27.7 µM.

For the molecule `CNCCCN1c2ccccc2CCc2ccccc21`, the IC50 is 77.6 µM.

As for `CN1CCN(CCCN2c3ccccc3Sc3ccc(C(F)(F)F)cc32)CC1`, the IC50 is 36.6 µM.

Take `CCCCCC[N+](C)(C)CC/C=C1/c2ccccc2Sc2ccc(Cl)cc21`: the IC50 was 26.2 µM.

For `COC(=O)C1C(O)C(C)C(O)C(C)(O)/C=C\C=C(/C)C(=O)Nc2c(C)c(OC(C)=O)c3c(c2O)C(=O)C(C)=C2OCOC(=C23)/C(C)=C/C(C)(O)C(O)C(C)C1O` (stereo unspecified), the IC50 is 23.9 µM.

Regarding `O=C(O)c1cccc(N2C(=O)CSC2=S)c1`, the IC50 is 68 µM.

As for `O=C(Cc1ccccc1)NNC(=S)NC(=O)c1cccs1`, the IC50 was 32.3 µM.

`O=[N+]([O-])c1cccc(NNS(=O)(=O)c2ccccc2F)c1`: the IC50 was 18.5 µM.

Turning to `CCOC(=O)c1c(N)sc(C(=O)Nc2ccc3c(c2)OCO3)c1C`, the IC50 was 132 µM.

In the case of `O=C(NC1CCCC1)c1ccc(Br)s1`, the IC50 was 49.5 µM.

For `CSc1ccc2c(c1)C(N1CCN(C)CC1)Cc1ccccc1S2` (stereo unspecified), the IC50 is 27.5 µM.

Consider `CCCNC(=O)c1cn(CC)c2cc(N3CCN(C)CC3)c(F)cc2c1=O`, for which the IC50 is 30.6 µM.

Take `CNCc1c(OCc2ccccc2F)ccc2ccccc12`: the IC50 was 37.2 µM.

For `CC(C(=O)NC1CCS(=O)(=O)C1)N1C(=O)/C(=C/c2ccc(Cl)cc2)SC1=S` (stereo unspecified), the IC50 was 18.2 µM.

`Cc1[nH]cnc1C(=O)N/N=C/c1ccc([N+](=O)[O-])s1`: the IC50 is 37.2 µM.

For the molecule `Cc1ccc(OCc2nnc(NC(=O)c3cccnc3)s2)cc1`, the IC50 is 52 µM.

On to `Cc1ccc(C(=O)NCCN2C3=NC[C@@H](Cc4ccccc4)N3C[C@H]2Cc2ccc(O)cc2)cc1Br`, for which the IC50 was 35.8 µM.

On to `CCN1CCN(Cc2ccc(NC(=O)c3cc(NC(=O)c4cc(-c5ccc(OC)cc5)n[nH]4)cc(OC)c3)cc2C(F)(F)F)CC1`, for which the IC50 is 145 µM.

Consider `O=[N+]([O-])/C=C/c1cc2ccccc2[nH]1`, for which the IC50 is 36.9 µM.

Consider `CCn1cc(C(=O)O)c(=O)c2cc3c(cc21)OCO3`, for which the IC50 was 80.8 µM.

Turning to `N#C/C(N=Nc1ccccc1O)=N\Nc1ccccc1O`, the IC50 was 20.2 µM.

For `N=c1c2c(n(Cc3cccc(Cl)c3)c3c1CCC3)CCCC2`, the IC50 is 47.8 µM.

Take `Cc1cc(C)nc(/N=C(\N)Nc2ccc(SC(F)F)cc2)n1`: the IC50 is 51.3 µM.

For the molecule `O=CN/N=C/c1c(O)ccc2ccccc12`, the IC50 was 33.1 µM.

Consider `Oc1cccc(Nc2nc(NCC3CCCO3)c3ccccc3n2)c1` (stereo unspecified), for which the IC50 is 38.1 µM.

As to `CCCCOc1ccc(NC2=NC3(CCCC3)N=C(N)N2)cc1`, the IC50 is 94.8 µM.

With `Oc1c(Br)cc(Br)cc1C=Nc1ccc2[nH]ncc2c1`, the IC50 is 21.8 µM.

In the case of `Oc1ccc(CN2CCN(c3ccccc3)CC2)c2cccnc12`, the IC50 is 99.6 µM.

As for `CCCCCCCSc1cc(OC)c(CCN(C)C)cc1OC`, the IC50 was 30.7 µM.

For the molecule `CN(C)CCCNc1cc(C(C)(C)C)nc2c(-c3ccc(Cl)cc3)cnn12`, the IC50 was 18.7 µM.

Consider `N#C/C(=C(/O)c1ccco1)c1nc2ccccc2s1`, for which the IC50 is 57.6 µM.

As for `COc1c(N2CCNC(C)C2)c(F)cc2c(=O)c(C(=O)O)cn(C3CC3)c12` (stereo unspecified), the IC50 was 1.1 µM.

On to `CN(C)C1C(=O)C(C(N)=O)=C(O)C2(O)C(=O)C3=C(O)c4c(O)cccc4C(C)(O)C3CC12` (stereo unspecified), for which the IC50 was 1.71 µM.

`CC(=O)c1cc(O)c2ccccc2c1O`: the IC50 was 107 µM.

`O=C(Oc1ccccc1)c1cc2ccccc2o1`: the IC50 was 97 µM.

`O=C(Nc1cccc(C2=NCCN2)c1)Nc1cccc(C2=NCCN2)c1`: the half-maximal inhibitory concentration (IC50) is 44.8 µM.

On to `Cc1ccc(S(=O)(=O)NNc2ccccc2)cc1`, for which the IC50 was 89.5 µM.

Regarding `Cc1ccc(NC(=O)c2ccc([N+](=O)[O-])o2)c(C)c1`, the IC50 is 67.9 µM.

Consider `COc1ccc(C(=O)N/N=C/c2sc3ccccc3c2O)cc1`, for which the IC50 is 62.6 µM.

Turning to `Cc1ccc(-n2c(-c3ccc(Br)cc3)c[n+]3c2CCc2ccc4cccnc4c2-3)cc1`, the IC50 is 40.6 µM.

On to `Fc1ccc(Nc2nc(NCc3ccco3)c3ccccc3n2)cc1`, for which the IC50 is 20.7 µM.

For the molecule `c1ccc2c(c1)CCc1ccccc1C2=C1CCNCC1`, the IC50 was 58.2 µM.

Consider `Nc1c(Cl)ncnc1N/N=C/c1ccccn1`, for which the IC50 is 32.9 µM.

For the molecule `CCOC(=O)N1CCN(Cc2cc(Cl)c3cccnc3c2O)CC1`, the IC50 was 47.4 µM.

For `OCCCCNCc1ccc(OCc2ccccc2Cl)cc1`, the IC50 was 86 µM.

As to `Cc1ccc(C(=O)Sc2cccccc2=O)cc1`, the IC50 was 6.31 µM.

With `COc1ccc(C(=O)NC(=S)NNC(=O)c2cnccn2)cc1`, the IC50 is 47.1 µM.

With `CCCCCOc1ccc(C)cc1CN(CCCl)CCCl`, the IC50 was 70.3 µM.

With `C/C(=N\Nc1ccc2nncn2n1)c1ccccn1`, the IC50 is 37.2 µM.

`NC1=NC[C@H](c2ccccc2)N1CCc1cc(C(F)(F)F)cc(C(F)(F)F)c1`: the IC50 is 31.1 µM.

Turning to `OC1CNCc2cc3c(cc21)OCCO3` (stereo unspecified), the IC50 is 61.7 µM.

Turning to `Cc1ccc(C(=O)N/C(=C\c2ccc(-c3ccc(Cl)cc3)o2)C(=O)NCCCN(C)C)cc1`, the IC50 was 36.4 µM.

Take `CCOC(=O)Cn1c(=N)n(CCOc2ccc3ccccc3c2)c2ccccc21`: the IC50 is 37.2 µM.

Turning to `O=C(Nc1ccccc1)Oc1ccc[nH]c1=O`, the IC50 was 52.9 µM.

For `O=C(CSC1=NC(=O)C(c2ccccc2)C(=O)N1)Nc1cccc(Cl)c1` (stereo unspecified), the IC50 is 80.2 µM.

With `Cc1cc(OCCCCCN2CCCC2)ccc1Cl`, the IC50 is 51 µM.

As to `NCCCCCc1nnc(SCc2ccc(Cl)cc2Cl)o1`, the IC50 was 98.3 µM.

As to `O=C(C[n+]1ccccc1)c1ccc(-c2ccccc2)cc1`, the IC50 was 123 µM.

As to `O=C(N[C@H](CO)[C@H](O)c1ccc([N+](=O)[O-])cc1)C(Cl)Cl`, the IC50 was 1.57 µM.

Consider `S=C(Nc1cc(Cl)cc(Cl)c1)NC1CCN(Cc2ccccc2)CC1`, for which the IC50 is 82 µM.

As to `C=C1c2cccc(O)c2C(O)=C2C(=O)[C@]3(O)C(O)=C(C(N)=O)C(=O)[C@@H](N(C)C)[C@@H]3[C@@H](O)[C@H]12`, the IC50 is less than 0.23 µM.

On to `CCCCCCOC(=O)C[N+](C)(C)CCOC1CC2CCC1(C)C2(C)C` (stereo unspecified), for which the IC50 was 27 µM.

Turning to `O=C(CN1CC(c2ccccc2)CC1=O)N/N=C/c1cc(Br)ccc1O` (stereo unspecified), the IC50 is 40.2 µM.

`Cc1ccc(CNCCC2=CCCCC2)cc1`: the IC50 was 70.7 µM.

Consider `Fc1cccc(Nc2c3c(nc4ccccc24)CCC3)c1`, for which the IC50 is 76.6 µM.

Regarding `C(=N/Nc1nccs1)/c1cccnc1`, the IC50 is 49.5 µM.

With `c1ccc(Nc2nc(NCC3CCCO3)c3ccccc3n2)cc1` (stereo unspecified), the IC50 was 26 µM.

Consider `O=C(N/N=C/c1cc(Cl)ccc1O)c1cccnc1`, for which the IC50 is 20.9 µM.

Turning to `CC(C)N1CSC(=S)N(Cc2ccccc2)C1`, the 50% inhibitory concentration (IC50) was 49.4 µM.

For `Nc1nonc1C(=O)N/N=C/c1cc(Br)ccc1O`, the IC50 is 14 µM.

`O=C(Cc1ccc([N+](=O)[O-])cc1)N/N=C/c1ccc([N+](=O)[O-])o1`: the IC50 is 20.9 µM.

As for `CCOc1cc(CNC(C)(C)CO)cc(Br)c1OCc1ccc(Cl)cc1Cl`, the IC50 is 37.3 µM.

For `Cc1ccc(N/C(=C\C(=O)c2ccccc2)C(=O)O)cc1`, the IC50 is 74.4 µM.

On to `COc1ccc(C(=O)NNC(=S)NC(=O)c2ccccc2)cc1`, for which the IC50 was 94 µM.

As for `NC1=NC[C@@H](Cc2ccc(O)cc2)N1CCCCC1CCCCC1`, the IC50 is 14.8 µM.

For `N=c1c2c(-c3ccccc3)c(-c3ccccc3)n(Cc3ccco3)c2ncn1CCCn1ccnc1`, the IC50 was 39.4 µM.

Turning to `CNCCCCOc1ccc(C(C)(C)C)cc1Cl`, the IC50 is 58.2 µM.

On to `Oc1[nH]c2ccccc2c1N=NC(=S)N1CCOCC1`, for which the IC50 was 21.2 µM.

Regarding `Fc1ccc(Nc2ccnc(Nc3ccc(F)cc3)n2)cc1`, the IC50 was 24.8 µM.

Consider `O=C(/C=C/c1cc(Br)ccc1O)c1ccco1`, for which the IC50 was 52.5 µM.

For `CC(=O)NC(c1ccc2ccccc2c1)c1ccc2cccnc2c1O` (stereo unspecified), the IC50 is 66.7 µM.

As for `C[n+]1c2n(c3ccccc31)N=C(c1ccc(-c3ccccc3)cc1)CS2`, the IC50 was 26.4 µM.

`C/C(=N\NC(=O)c1ccc(CN2CCc3ccccc3C2)cc1)c1ccccc1O`: the IC50 is 51.8 µM.

Regarding `CO[C@@]1(NC(=O)Cc2cccs2)C(=O)N2C(C(=O)O)=C(COC(N)=O)CS[C@@H]21`, the IC50 was 7.08 µM.

With `Cc1ccc2c(c1)c1c(n2CC(O)CNC2CCCCC2)CCCC1` (stereo unspecified), the IC50 is 87.1 µM.

As for `NC1=NC2(CCCCC2)N=C(Nc2ccc(Br)cc2)N1`, the IC50 was 35.9 µM.

Regarding `CSc1ccccc1NC(=O)CN1CCCCC1C` (stereo unspecified), the IC50 was 131 µM.

Take `O=C(/C=C/c1ccccc1Cl)Nc1cccc(O)c1`: the IC50 was 49.8 µM.

On to `O=C(Nc1nnc(-c2ccco2)o1)c1cccc(Cl)c1`, for which the IC50 was 43.1 µM.

For `C/C(=N/Nc1ccnc2cc(Cl)ccc12)c1ccc(N)cc1`, the IC50 is 73.9 µM.

Consider `Cc1ccc(C(=O)N/N=C\c2ccc([N+](=O)[O-])s2)cn1`, for which the IC50 is 19.8 µM.

As for `O=C(N/N=C/c1cc(Cl)cc(Cl)c1O)c1ccncc1`, the IC50 is 33.7 µM.

`Clc1cc(Br)ccc1OCCCNCc1ccccc1`: the IC50 is 39.3 µM.

For `OC(CNCCc1ccc(Cl)cc1)COc1cc(Cl)ccc1Cl` (stereo unspecified), the IC50 is 80.6 µM.

For the molecule `Cn1c(SCC(=O)N/N=C/c2ccc([N+](=O)[O-])s2)nnc1-c1ccc(Cl)cc1`, the IC50 is 46.2 µM.

For the molecule `CCCOc1ccc(C(=O)NNC(=S)NC(C)=O)cc1`, the IC50 was 39.2 µM.

With `O=C(Nc1ccc(Cl)cc1)Nc1ccc2c(c1)N1CCN=C1S2`, the IC50 was 76.3 µM.

`CCCCCCCSc1cc(OC)c(CCNC)cc1OC`: the IC50 was 33.2 µM.

On to `c1ccc2cc3c(NCCN4CCOCC4)ccnc3cc2c1`, for which the IC50 was 88.2 µM.

Regarding `c1cnc2c(c1)ccc1cccnc12`, the IC50 was 35 µM and 31.3 µM.

The values are drawn from PubChem BioAssay AID2384 (Southern Research Specialized Biocontainment Screening …, 2010).
